Results published in patent US10449183B2, “Methods for inhibiting preterm labor and uterine contractility disorders and preventing cervical ripening” (DIGNITY HEALTH, priority 2010, dated 2019).
“Also recorded” adds a separate entry of the source.

Legend:
cervix of pregnant rats = assay: Cervical ripening assessed in vivo by collagen light-induced fluorescence (LIF) with the collascope; design: species or system Sprague-Dawley rats
Description: (§1) Nonpregnant and timed-pregnant Sprague-Dawley rats (200-250 g) from Charles-River Laboratories (Wilmington, Mass., USA) were delivered to animal care facilities on day 12 of gestation (day 1 being the day when a sperm plug was observed). The animals were housed separately, with free access to food and water and maintained on a constant 12-hour light-dark cycle. Control pregnant rats were spontaneously delivering on day 22 and 23 of gestation. For the measurements with the collascope the animals were anaesthetized (interperitoneal (i.p). injection) with a combination of xylazine (Gemini, Burns Veterinary Supply Inc, Rockville Center, N.Y., USA) and ketamine HCl (Ketaset; Fort Dodge Laboratories Inc, Fort Dodge, Iowa, USA). The animals were randomly allocated to one of the groups and sacrificed by carbon dioxide inhalation on day 3, 5, 7 and 10 postpartum or on day 25 of pregnancy in the groups with delayed delivery. All procedures were approved by the Animal Care and Use Committee of the St. Joseph's Hospital and Medical Center in Phoenix.
(§2) Prior to any treatment LIF measurements were made in control rats throughout pregnancy and postpartum to estimate the LIF profile during gestation (see FIG. 1). Pregnant rats (N=6/group) were treated (see FIG. 2), when not otherwise mentioned (see FIG. 3), from day 13 of pregnancy until delivery. Single daily treatments were performed at 8 a.m. and twice a day treatments at 8 a.m. and 8 p.m. All single injections (4 mg P4, 10 mg 17P, 2 mg promegestone (R5020)) were by the subcutaneous route (s.c.) in sesame oil (0.2 ml), which was also used for the controls. Vaginal gels were applied twice a day with a blunt ball-top needle deep into the vagina. Crinone was used for the P4 vaginal group (equivalent volumes of Crinone were used for 2-15 mg P4/treatment), all data presented show the results of the highest dose (total daily dose of 30 mg P4=⅓ of a applicator of 8% Crinone that contains 90 mg P4). For the vaginal promegestone (R5020) group micronized promegestone (R5020) (1 mg/treatment) was mixed into 0.18 ml of Replens. The control rats for the vaginal groups were treated with Replens (0.18 ml/treatment). For oral P4 treatments (15 mg, bid, vehicle sesame oil or H2O, volume 1 ml) gavage was used. For topical P4 treatment (15 mg, bid, P4 in 1 ml sesame oil, fish oil or in Replens) the drug was applied on the back of animals that were shaved on day 13, 17 and 21. In some animals (N=6) RU-486 (3 mg in 0.2 ml sesame oil) was injected subcutaneously once on day 16 of gestation.
The amount of cervical collagen was evaluated in vivo (only in group subcutaneously P4, vaginal P4, subcutaneously 17P, vaginal promegestone (R5020), subcutaneously RU-486) by measurement of the auto-fluorescent properties of cross-linked collagen with a new prototype of an instrument, termed collascope (Reproductive Research Technologies, Houston, Tex., USA), as used previously with an earlier prototype.
After insertion of a small speculum into the vagina of the anesthetized animal, the optical probe of the collascope was placed on the surface of the exocervix. […] The exposure time for excitation was 100 msec. The average of 20 measurements of the detected fluorescent intensity (photon count) at 390 nm was used for each animal at any given time. Measurements of cervical light-induced fluorescence (LIF) were performed on nonpregnant animals once and in pregnant animals every other day starting at day 13 of gestation until delivery and on postpartum day 3 and/or postpartum day 5 (see FIGS. 2 and 3), and for some animals also on postpartum days 7 and 10 (see FIGS. 1 and 3).
The cervical LIFs obtained at different times of gestation (FIG. 1) were compared using one-way analysis of variance (ANOVA) and multiple pairwise comparison procedures (Holm-Sidak). […]

pregnant rats = assay: Time of delivery of timed-pregnant rats (hours after 8 a.m. of day 22 of gestation); assay type: in vivo, Sprague-Dawley rats
Description: as §1, §2
Times of delivery (see also FIG. 4) of controls and various treatment groups were determined as hours after 8 a.m. of day 22 of gestation (FIG. 5). The expulsion of one pup was defined as delivery.
The cervical LIFs obtained at different times of gestation (FIG. 1) were compared using one-way analysis of variance (ANOVA) and multiple pairwise comparison procedures (Holm-Sidak). Student's t-test was used to compare the LIF results of a treatment group to its specific control group at any time in gestation and postpartum and also to determine the differences in delivery times (FIGS. 2, 3 and 5). A two-tailed probability value of P<0.05 was considered statistically significant.
FIG. 15 depicts delay of delivery times in timed pregnant rats treated with progesterone (P4) with different routes and vehicles. Treatment was started on day 13 of gestation and continued until delivery of pups or until delivery was blocked at […] (day 25) past day 22 of gestation. 8 am on day 22 is noted as hour 0 and delay is compared to control group treated only with vehicle. Treatment groups included: P4 in fish oil (vaginal, nasal, injection and topical groups), P4 in cocoa butter (rectal) and P4 in sesame oil (oral). All treatment groups received a total daily dose of 30 mg P4/day except the nasal and subcutaneous injection group which received 1 mg/day and 4 mg/day, respectively. […]

[1] = s.c. injection daily in sesame oil from day 13 (P4 4 mg, 17P 10 mg, R5020 2 mg)
[2] = RU-486 3 mg s.c. once on day 16

CCC(=O)[C@@]1(C)CC[C@H]2[C@@H]3CCC4=CC(=O)CCC4=C3CC[C@@]21C [promegestone (R5020), Promegestone]
cervical LIF / cervical ripening compared with vehicle controls (cervix of pregnant rats; vaginal promegestone (R5020) 1 mg bid in Replens from day 13): cervix is rigid; also recorded: significantly higher (P<0.05) in the promegestone (R5020) treated group (until day 19 only); also recorded: delayed cervical ripening but not at term immediately preceding delivery; also recorded: only attenuated until day 19 of gestation; also recorded: not significantly different from controls; also recorded: significant differences are observed only until day 19 | effect on delivery (pregnant rats; [1]): inhibits delivery; also recorded: completely block delivery; also recorded: prevented delivery; also recorded: completely inhibited | effect on delivery (pregnant rats; vaginal bid from day 13 (P4 15 mg as Crinone; R5020 1 mg in Replens)): inhibits delivery; also recorded: completely blocked delivery; also recorded: prevented delivery; also recorded: completely inhibited; also recorded: delivery is blocked

CCCCCC(=O)O[C@]1(C(C)=O)CC[C@H]2[C@@H]3CCC4=CC(=O)CC[C@]4(C)[C@H]3CC[C@@]21C [17P, 17-alpha-hydroxyprogesterone caproate]
cervical LIF / cervical ripening compared with vehicle controls (cervix of pregnant rats; 17P 10 mg s.c. daily from day 13): cervix is rigid; also recorded: significantly higher (P<0.05) in the 17P treated group (until day 19 only); also recorded: delayed cervical ripening but not at term immediately preceding delivery; also recorded: only attenuated until day 19 of gestation; also recorded: partly delays ripening; also recorded: not significantly different from controls at day 21; also recorded: significant differences are only observed until day 19 of gestation | effect on delivery (pregnant rats; [1]): Delivery was not changed; also recorded: does not block delivery at all; also recorded: no significant effect on delaying term delivery

CC#C[C@]1(O)CC[C@H]2[C@@H]3CCC4=CC(=O)CCC4=C3[C@@H](c3ccc(N(C)C)cc3)C[C@@]21C [RU-486, mifepristone]
cervical ripening / softening (cervix of pregnant rats; [2]): softened the cervix during preterm delivery; also recorded: cervical ripening occurs after 24 hours followed by preterm delivery | cervical LIF compared with vehicle controls (cervix of pregnant rats; RU-486 3 mg s.c. once on day 16, 24 and 72 hours after treatment): significantly lower (P<0.05) | cervical LIF compared with vehicle controls (cervix of pregnant rats; RU-486 3 mg s.c. once on day 16, 5 days after treatment): higher | animals delivered after 24 hours (pregnant rats; [2]): 4 of 6 | delivery of the remaining two animals after treatment (pregnant rats; [2]): ≤ 48 h | time of induced preterm delivery after injection (pregnant rats; [2]): 24 to 48 h
